According to patent publication US12569507B2, “CAR T-cells for the treatment of bone metastatic cancer” (H. Lee Moffitt Cancer Center and Research Institute, Inc., priority 2018, dated 2026):

How the values were obtained:
T47D breast cancer cells = experiment: IPP production in response to zoledronate, LC-MS/MS of cell extracts; type: cell-based; conditions: 1 h, high-dose zoledronate
Procedure: (§1) Following treatment of tumor cells with ZOL, IPP was measured in cell extracts by tandem LC-MS/MS, using AppCp as an internal standard. […] ZOL treatment was administered for 1 h or 18 h, at 2 different doses: 10 μM or 25 μM.
(§2) In order to verify that zoledronate effectively induces IPP accumulation in a model system, C4-2B-PSCA-Luc human CRPC prostate cancer cells were treated with 10 μM or 25 μM of zoledronate, for 1 h or 18 h. Intracellular IPP levels were measured using a semi-quantitative mass spectrometry assay. T47D breast cancer cells were used as positive control, and Panc02.03 pancreatic cancer cells were used as negative controls.

[1] = tested on: Panc02.03 pancreatic cancer cells; experiment: as above; type: cell-based; conditions: Panc02.03 cells, even after prolonged treatment with high doses
Procedure: as §1, §2

C4-2B-PSCA cells [2] = experiment: RTCA cytotoxicity with or without zoledronate; type: cell-based, human; conditions: γδ T-cells in combination with zoledronate
Procedure: (§3) Summary of RTCA analysis of C4-2B-PSCA, or control PSCA null C4-2B, cells co-cultured with γδ CAR-T cells, or untransduced controls (UT). FIGS. […] show tumor cells without ZOL pretreatment. FIGS. 6C and 6D show tumor cells with 2 h ZOL pretreatment. FIGS. 6A and 6C show tumor cell viability 2 h post co-culture. FIGS. 6B and 6D show 30 h post co-culture.
(§4) The CAR- and TCR-mediated mechanism of tumor cell recognition were tested using the CRPC C4-2B cell line.

[3] = tested on: Parental C4-2B cells (PSCA null); experiment: RTCA cytotoxicity with or without zoledronate; type: cell-based, human; conditions: γδ T-cells in combination with zoledronate
Procedure: as §3, §4

CRPC C4-2BPSCA cell line = experiment: Cytotoxicity of γδ (CAR)-T cells with or without ZOL; type: cell-based; conditions: ZOL 0.4 μM added to γδ CAR-T
Procedure: FIGS. 11A and 11B show zoledronate enhances γδ (CAR)-T cells cytotoxic effect.
(§5) γδ CAR-T cells recognize tumor cells via CAR and via TCR. The CAR- and TCR-mediated mechanisms of tumor cell recognition were tested using the CRPC C4-2BPSCA cell line. Cancer cells were treated with either untransduced (UT) control or CAR-expressing γδ T-cells, in the presence or absence of ZOL (0.4 μM). In presence of ZOL, control γδ T cells induced a cytotoxic effect at approx. 18 h, reflecting recognition of C4-2B-PSCA cells via TCR. […] The ability to induce a potent cytolytic effect with lesser cytokine production that can be modulated by ZOL is important since it may allow γδ (CAR-)T-cells to mediate more precise tumor killing, reducing the risk for complications related to massive cytokine release.

C4-2B-PSCA cells [4] = experiment: IFNγ ELISA of co-culture supernatants with increasing Zol; type: cell-based
Procedure: IFNγ ELISA of co-culture supernatants of C4-2B-PSCA cells exposed to media (negative control) or the indicated T cells, in presence of increasing concentrations of Zol (0, 0.4 and 0.8 μM).
as §5

[5] = tested on: C4-2B luciferase expressing cells; experiment: Intratibial C4-2B bone metastatic CRPC model, γδ T-cells with zoledronate or vehicle; type: in vivo, NSG mice
Source text: FIGS. 7A to 7D show C4-2B cells inoculated into NSG mice and treated with either zoledronate (ZOL) or vehicle control. After establishment and randomization mice (n=15/group) were inoculated with 3.5×10^6 […]. Subsets of mice were removed from the study at 1, 3 and 5 days late. […] Number illustrate the percentage of γδ T-cells in the total marrow analysis over time. […] FIG. 7C is a graph showing RLUs quantitated over time and the growth rates calculated for each group. Asterisk indicates statistical significance. Mice at the final time point were assessed for γδ T-cell localization (CD3), apoptosis (cleaved caspase-3; CC3) and proliferation (phospho histone H3; pHH3). […] Arrows indicate positivity. DAPI was used as a nuclear counterstain.
Next, the anti-tumor activity of γδ T-cells on established bone metastatic CRPC lesions in vivo was assessed. NSG (NOD.Cg-Prkdcscid112rgtm1Wjl/SzJ) immunocompromised mice were intratibially inoculated with C4-2B luciferase expressing cells (1×10^5) and once established were randomized in zoledronate (0.1 mg/Kg) or vehicle (saline) groups (n=25 per group) based on relative luminescence unit (RLU) measurement. One week later, mice received tail vein injections of human γδ T-cells (3.5×10^6/mouse).
Groups of mice (n=5) were removed from the study 1, 3, 5 days subsequent to injection with tibias being flushed and assessed for human CD3 Vd2 content by flow cytometry. […] Bioluminescence was used as a correlate of tumor growth.

[6] = tested on: PSCA-expressing C42B prostate cancer cells; experiment: Interferon-γ ELISA of γδ CAR-T coculture supernatants; type: cell-based
Source text: Four variants of the anti-PSCA CAR were generated containing either CD27 (CD27z), CD28 (CD28z), or 4-1BB (BBz) costimulation. The fourth variant contains a CD27 costimulatory domain where the TRAF-binding site has been replaced with an inert flexible linker (G4S). γδ CAR-T cells expressing either CAR variant (or GFP as controls) were generated, and cocultured with PSCA-expressing C42B prostate cancer cells, in presence or absence of zoledronate, at the indicated doses. The presence of interferon-γ in the supernatants (measured by ELISA) was used as a marker of T cell activation. CAR-expressing T cells (but not untransduced or GFP-transduced cells) reacted to target cells by producing interferon-γ (solid bars).

γδ (CAR)-T cells = experiment: IL-2 secretion by γδ (CAR)-T cells; type: cell-based
[7] = tibias at study endpoint, vs control

`O=P(O)(O)C(O)(Cn1ccnc1)P(=O)(O)O` [zoledronate] was tested, and the “Intracellular IPP levels” value (T47D breast cancer cells) was “detectable over background”, the “Intracellular IPP levels” value [1] was “did not produce IPP” and the “viability of tumor cells, early time point” value (C4-2B-PSCA cells [2]) was “less evident”. For the same compound, the “viability of tumor cells, early time point” value [3] was “notable reduction in the viability”, the “effect of ZOL on cytolytic activity of γδ CAR-T” value (CRPC C4-2BPSCA cell line) was “greatly enhanced” and the “time to complete elimination of tumor cells” value (CRPC C4-2BPSCA cell line) was ≤ 45 h. For the same compound, the “effect of ZOL on IFNγ secretion” value (C4-2B-PSCA cells [4]; coculture of γδ (CAR-)T-cells with C4-2BPSCA cells) was “enhanced IFNγ secretion”, the “effect of ZOL on IFNγ secretion” value (C4-2B-PSCA cells [4]; αβ T cells used) was “not observed” and the “apoptotic (cleaved caspase-3) cancer cells” value [5, 7] was “increased”. The “proliferative (phospho-Histone H3) cancer cells” value [5, 7] was “decreased”, the “C4-2B growth rate (bioluminescence)” value ([5]; zoledronate group vs controls, with γδ T-cells) was “significantly slower” and the “effect of zoledronate on target recognition by control γδ T cells” value ([6]; GFP-transduced and untransduced γδ T cells) was “induced target recognition by GFP-transduced and untransduced γδ T cells”. The “effect of zoledronate on interferon production by CAR-T cells” value ([6]; γδ CAR-T cells, coculture) was “enhanced interferon production by CAR-T cells” and the “IL-2 secretion by γδ (CAR)-T cells” value (γδ (CAR)-T cells) was “increases IL-2 secretion”.
